Experimental findings from paper PMC10818589 (2024) are described below.

This assay concerns d(5′-CGCGAATTCGCG-3′)2 (DNA, duplex) CGCGAATTCGCG
The experiment in a line: ethidium bromide displacement, fluorescence quenching, double-log plot. Particulars: phosphate buffer 100 mM (cation not given); pH 7.0, 298 K; 20 μM duplex saturated with EtBr (5.07 μM), displaced; compound slowly decomposes in water; apparent.

Take `[Ru+2].[Ru+2].[Ru+2].[Ru+2].[Ru+2].[Ru+2].[Ru+2].[Ru+2].[Ru+2].[Ru+2].[Ru+2].[Ru+2].c1cc2ccc1-c1ccc(cc1)-c1ccc(cc1)-c1ccc(cc1)-c1ccc(cc1)-c1ccc(cc1)-c1ccc(cc1)-c1ccc(cc1)-c1ccc(cc1)-c1ccc(cc1)-c1ccc(cc1)-c1ccc-2cc1.c1cc[cH-]c1.c1cc[cH-]c1.c1cc[cH-]c1.c1cc[cH-]c1.c1cc[cH-]c1.c1cc[cH-]c1.c1cc[cH-]c1.c1cc[cH-]c1.c1cc[cH-]c1.c1cc[cH-]c1.c1cc[cH-]c1.c1cc[cH-]c1`: the Kb is reported as 3.162 × 10^5 ± 0.001 M^-1.
